{
  "source": "paper PMC7468285",
  "about": "“The operational model of allosteric modulation of pharmacological agonism” (Scientific Reports, 2020)",
  "key": {"[1]": {"molecular_target": "T1, M1 muscarinic receptor (Homo sapiens, UniProt P11229)", "T1 construct": "expressed in transfected cells; host or cells: CHO cells", "T1 sequence (P11229 1-460)": "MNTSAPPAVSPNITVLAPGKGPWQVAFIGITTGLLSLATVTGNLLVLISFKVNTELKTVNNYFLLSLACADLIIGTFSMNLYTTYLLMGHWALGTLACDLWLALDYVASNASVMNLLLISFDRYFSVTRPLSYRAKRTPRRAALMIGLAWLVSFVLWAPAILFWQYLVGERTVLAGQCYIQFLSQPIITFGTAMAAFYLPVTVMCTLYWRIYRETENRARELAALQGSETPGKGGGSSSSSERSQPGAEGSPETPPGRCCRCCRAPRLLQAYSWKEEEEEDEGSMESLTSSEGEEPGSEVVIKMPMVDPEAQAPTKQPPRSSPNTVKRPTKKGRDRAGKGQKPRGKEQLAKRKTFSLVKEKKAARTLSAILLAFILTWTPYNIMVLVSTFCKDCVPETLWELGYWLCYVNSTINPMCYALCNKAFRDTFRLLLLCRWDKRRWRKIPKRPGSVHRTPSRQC", "type": "cell-based", "conditions": "for τA / EMAX: Table S3B, global fit; for τA: EMAX as shared parameter; for EMAX: EMAX estimated as shared parameter of all 4 curves; for α (factor of binding cooperativity) / β (factor of operational cooperativity): functional, global fit of Eq. (14)", "description": "(§1) CHO cells were grown to confluence in 75 cm^2 flasks in Dulbecco’s modified Eagle’s medium (DMEM) supplemented with 10% fetal bovine serum. Two million cells were subcultured in 100 mm Petri dishes. The medium was supplemented with 5 mM sodium butyrate for the last 24 h of cultivation to increase receptor expression. Cells were washed with phosphate-buffered saline and manually harvested on day 5 after subculture and centrifuged for 3 min at 250 × g. The pellet was suspended in 10 ml of ice-cold homogenization medium (100 mM NaCl, 20 mM Na-HEPES, 10 mM EDTA, pH = 7.4) and homogenized on ice by two 30 s strokes using a Polytron homogenizer (Ultra-Turrax; Janke & Kunkel GmbH & Co. KG, IKA-Labortechnik, Staufen, Germany) with a 30-s pause between strokes. Cell homogenates were centrifuged for 5 min at 1,000 × g. The supernatant was collected and centrifuged for 30 min at 30,000 × g. Pellets were suspended in the washing medium (100 mM, 10 mM MgCl2, 20 mM Na-HEPES, pH = 7.4), left for 30 min at 4 °C, and then centrifuged again for 30 min at 30,000 × g. Resulting membrane pellets were kept at -80 °C until assayed.\nAccumulation of inositol phosphates (IPX) was assayed in cells in suspension. IPX was determined after separation on ion-exchange columns (Dowex 1X8-200, Sigma, USA). Cells were harvested by mild trypsinization and resuspended in KHB and centrifuged 250 g for 3 min. Cells were resuspended in KHB supplemented with 500 nM [^3H]myo-inositol (ARC, USA) and incubated at 37 °C for 1 h. Then they were washed once with an excess of KHB, resuspended in KHB containing 10 mM LiCl, and incubated for 1 h at 37 °C in the presence of indicated concentrations of agonists and/or allosteric modulator. Incubation was terminated by the addition of 0.5 ml of stopping solution (chloroform: methanol: HCl; 2: 1: 0.1) and placed in 4 °C for 1 h. An aliquot (0.6 ml) of the upper (aqueous) phase was taken and loaded onto ion-exchange columns. Columns were washed with 10 ml of deionized water and 20 ml of 60 mM ammonium formate/5 mM sodium borate solution. IPX were collectively eluted from columns by 4 ml of 1 M ammonium formate-0.1 M/formic acid buffer.\n(§2) Where [D] and KD are concentration and equilibrium dissociation constant of the tracer ([^3H]NMS), [A] and KA are concentration and equilibrium dissociation constant of the agonist. Parameters KB and α1 obtained by fitting of Eq. (29) to binding data in the absence of the agonist.31 Concentration-responsecurvey=basal+EMAX′-basal∗x^nH/x^nH+EC50nH where y is response normalized to basal activity in the absence of allosteric ligand at concentration x, E'MAX is the apparent maximal response, EC50 is concentration causing half-maximal effect, and nH is Hill coefficient."}, "[2]": {"molecular_target": "T1, M1 muscarinic receptor", "type": "binding", "description": "as §1\nAll radioligand binding experiments were optimized and carried out according to general guidelines. […] Agonist binding was determined in competition experiments with 1 nM [^3H]NMS. Nonspecific binding was determined in the presence of 10 μM atropine. Incubation was terminated by filtration through Whatman GF/C glass fibre filters (Whatman) using a Brandel harvester (Brandel, USA). […] The filters were cooled and counted in a Wallac Microbeta scintillation counter (Wallac, Finland).\nData from experiments were processed in Libre Office and then analysed and plotted using program Grace (https://plasma-gate.weizmann.ac.il/Grace). […] Inhibition constant KI was calculated as:28 KI=IC50/1+D/KD where [D] is the concentration of radioligand used and KD is its equilibrium dissociation constant.\nInteraction between tracer ([^3H]NMS) and allosteric modulator:29 y=D+KD/D+KDKB+x/KB+xα where y is specific radioligand binding at concentration x of the allosteric modulator as per cent of binding in the absence of allosteric modulator. Where [D] and KD are concentration and equilibrium dissociation constant of the tracer ([^3H]NMS). The equilibrium dissociation constant of the allosteric modulator KB and factor of binding cooperativity α are obtained by fitting of Eq. (29) to data.\nas §2, with “Interaction between tracer ([^3H]NMS) and allosteric modulator in the presence of an agonist at fixed concentration:30 y=D+KD/D+KDAKB+Bα2+KAKB+B/KAKB+Bα1 where y is specific radioligand binding at concentration x of the allosteric modulator as per cent of binding in the absence of allosteric modulator. Where” for “Where”"}},
  "note": "Values joined by “and” are separate entries in the source; they are usually repeats but may differ in a detail not shown here. Equal entries are not always repeated. Where two headings read alike, the source gives them in different places.",
  "data": [
    {"smiles": "Cc1ccccc1CN1CCC(N2CCC(n3c(=O)[nH]c4ccccc43)CC2)CC1", "note": "[TBPB, 3-[1-[1-[(2-methylphenyl)methyl]piperidin-4-yl]piperidin-4-yl]-1H-benzimidazol-2-one]", "values": [
      {"measurement": "E’MAX", "setting": "[1]", "value": "56.0 ± 2.2 and 57.8 ± 3.3 and 57.9 ± 1.4"},
      {"measurement": "E′MAX of response compared with carbachol", "setting": "[1]", "value": "close to E′MAX of full agonist carbachol"},
      {"measurement": "basal", "setting": "[1]", "value": "52.7 and 53.2 and 51.3"},
      {"measurement": "effect on EC′50 of carbachol and iperoxo", "setting": "[1]", "value": "increased EC′50 values"},
      {"measurement": "nH", "setting": "[1]", "value": "1.15 ± 0.18 and 1.18 ± 0.20 and 0.85 ± 0.15"},
      {"measurement": "binding cooperativity α in functional experiments compared with binding experiments", "setting": "[1]; Figs. 14 and 15 vs Fig. 12", "value": "about twice stronger"},
      {"measurement": "τA", "setting": "[1]", "value": "1.26 ± 334"},
      {"measurement": "EMAX", "setting": "[1]", "value": "98 ± 53"},
      {"measurement": "effect on E′MAX of carbachol and iperoxo", "setting": "[1]; fixed concentrations of allosteric ligand", "value": "decreased E′MAX values"},
      {"measurement": "α (factor of binding cooperativity)", "setting": "[1]; with carbachol", "value": "0.48 ± 0.05"},
      {"measurement": "β (factor of operational cooperativity)", "setting": "[1]; with carbachol", "value": "0.80 ± 0.05"},
      {"measurement": "α (factor of binding cooperativity)", "setting": "[1]; with iperoxo", "value": "0.51 ± 0.08"},
      {"measurement": "β (factor of operational cooperativity)", "setting": "[1]; with iperoxo", "value": "0.78 ± 0.08"},
      {"measurement": "E’MAX", "setting": "[1]; iperoxo + 1 µM TBPB", "value": "59.7 ± 3.9", "unit": "fold-over basal"},
      {"measurement": "basal", "setting": "[1]; iperoxo + 1 µM TBPB", "value": 51.3, "unit": "fold-over basal"},
      {"measurement": "nH", "setting": "[1]; iperoxo + 1 µM TBPB", "value": "1.18 ± 0.20"},
      {"measurement": "E’MAX", "setting": "[1]; iperoxo + 3 µM TBPB", "value": "58.0 ± 4.8", "unit": "fold-over basal"},
      {"measurement": "basal", "setting": "[1]; iperoxo + 3 µM TBPB", "value": 52.7, "unit": "fold-over basal"},
      {"measurement": "nH", "setting": "[1]; iperoxo + 3 µM TBPB", "value": "0.82 ± 0.20"},
      {"measurement": "E’MAX", "setting": "[1]; iperoxo + 10 µM TBPB", "value": "57.6 ± 2.9", "unit": "fold-over basal"},
      {"measurement": "basal", "setting": "[1]; iperoxo + 10 µM TBPB", "value": 53.2, "unit": "fold-over basal"},
      {"measurement": "nH", "setting": "[1]; iperoxo + 10 µM TBPB", "value": "1.19 ± 0.22"},
      {"measurement": "E’MAX (apparent maximal response)", "setting": "[1]; ligand alone, Eq. (31)", "value": "54.4 ± 0.9", "unit": "fold-over basal"},
      {"measurement": "nH (slope)", "setting": "[1]; ligand alone, Eq. (31)", "value": "1.01 ± 0.08"},
      {"measurement": "operational cooperativity β", "setting": "[1]; with both carbachol and iperoxo, indicated by E′MAX change", "value": "< 1"},
      {"measurement": "αNMS (factor of binding cooperativity with NMS)", "setting": "[2]; Eq. (29)", "value": "0.002 ± 0.001"},
      {"measurement": "inhibition of [3H]NMS binding", "setting": "[2]; allosteric ligand alone", "value": "completely inhibited"},
      {"measurement": "αcarbachol (factor of binding cooperativity with carbachol)", "setting": "[2]; binding experiments, Eq. (30)", "value": "0.7 ± 0.3"},
      {"measurement": "αiperoxo (factor of binding cooperativity with iperoxo)", "setting": "[2]; binding experiments, Eq. (30)", "value": "0.8 ± 0.4"},
      {"measurement": "decrease in affinity of [3H]NMS", "setting": "[2]; fit of Eq. (29), TBPB estimate with high uncertainty", "value": 500, "unit": "fold"},
      {"measurement": "binding cooperativity with carbachol and iperoxo", "setting": "[2]; fit of Eq. (30), high degree of uncertainty", "value": "slightly negative"}
    ]},
    {"smiles": "C[N+](C)(C)CC#CCOC1=NOCC1", "note": "[iperoxo]", "values": [
      {"measurement": "τA", "setting": "[1]", "value": "1.97 ± 708"},
      {"measurement": "EMAX", "setting": "[1]", "value": "98 ± 53"},
      {"measurement": "basal", "setting": "[1]; agonist alone", "value": 1, "unit": "fold-over basal"},
      {"measurement": "efficacy ranking", "setting": "[1]; functional experiments", "value": "greater efficacy than carbachol"},
      {"measurement": "E’MAX (apparent maximal response)", "setting": "[1]; ligand alone, Eq. (31)", "value": "64.7 ± 0.5", "unit": "fold-over basal"},
      {"measurement": "nH (slope)", "setting": "[1]; ligand alone, Eq. (31)", "value": "1.04 ± 0.02"},
      {"measurement": "pEC50", "setting": "[1]; ligand alone, Eq. (31)", "value": "9.42 ± 0.01"},
      {"measurement": "operational efficacy τ (τA / τB)", "setting": "[1]; ligand alone, Eq. […]", "value": "1.86 ± 0.04"},
      {"measurement": "pKA / pKB (functional)", "setting": "[1]; ligand alone, Eq. […]", "value": "8.96 ± 0.02"},
      {"measurement": "flow (fraction of low-affinity sites)", "setting": "[2]; Eq. (27)", "value": "51 ± 5", "unit": "%"},
      {"measurement": "high-affinity binding (candidate KA)", "setting": "[2]; competition with [3H]NMS, high-affinity sites", "value": 200, "unit": "pM"},
      {"measurement": "pIC50high", "setting": "[2]; high-affinity sites, 1 nM [3H]NMS, Eq. (27)", "value": "8.99 ± 0.05"},
      {"measurement": "pKIhigh", "setting": "[2]; high-affinity sites, 1 nM [3H]NMS, calculated from IC50 by Eq. (28)", "value": "9.70 ± 0.05"},
      {"measurement": "pIC50low", "setting": "[2]; low-affinity sites, 1 nM [3H]NMS, Eq. (27)", "value": "5.96 ± 0.04"},
      {"measurement": "pKIlow", "setting": "[2]; low-affinity sites, 1 nM [3H]NMS, calculated from IC50 by Eq. (28)", "value": "6.66 ± 0.04"}
    ]}
  ]
}
